From article PMC9743092, “Membrane-Active Cyclic Amphiphilic Peptides: Broad-Spectrum Antibacterial Activity Alone and in Combination with Antibiotics” (Journal of Medicinal Chemistry, 2022)
Converted amounts (≈) assume the structure as drawn. Read-outs that look alike come from different tables or passages of the source. Peptide text beside a SMILES is read from it.

Key:
[1] = tested on: P. aeruginosa (ATCC 27883); experiment: Synergistic checkerboard assay; assay type: cell-based; details: Pseudomonas aeruginosa
Method: (§1) This study aimed to compare the influence of synergistic combinations on the antibacterial efficacy against the individual peptide or antibiotic. The comparison is represented by the fractional inhibitory concentration index (FICI) value, which classifies the combined impact of the two tested compounds. Selected antibiotics were tested as 11 dose points of two-fold serial dilutions across the assay plate in combination with seven points of two-fold serial dilution of the peptides down the assay plate. Two-fold serial dilutions for antibiotics and peptides were performed individually to determine the MIC value for each tested compound.
(§2) The concentrations of the peptide started from its respective MICs and were then subjected to two-fold serial dilutions (a total of 7 points). […] Antibiotics were tested as 11 points, two-fold serial dilutions across the assay plate (from 1 to 11 columns) in combination with a seven (A–G)-point and two-fold serial dilution of the peptides down the assay plate. […] In column 12 (A–G) down the assay plate, a two-fold serial dilution of the peptide alone was performed.
(§3) The following equation was applied to calculate the FICI: (A)/MICA + (B)/MICB = FICA + FICB = FICI, where (A) and (B) are the MIC of (antibiotic + [peptide]) in combination (in a single well) and MICA and MICB are the MIC of each compound individually. Based on the calculated FICI value, the interaction between combinations was categorized into four prospects synergy, partial synergy, additive or indifference, and antagonism. […] All experiments were performed in triplicate.

E. coli (ATCC 25922) [2] = experiment: Synergistic checkerboard assay; assay type: cell-based; details: Escherichia coli, ATCC25922, read-out: MIC antibiotic alone
Method: as §1, §2, §3

[3] = tested on: K. pneumoniae (ATCC BAA-1705); experiment: Synergistic checkerboard assay; details: for MIC: Klebsiella pneumoniae, ATCCBAA1705, read-out: MIC antibiotic alone
Method: as §1, §2, §3

[4] = tested on: K. pneumoniae (ATCC BAA-1705); details: for MIC K. pneumoniae: supplementary csv, unit not given
MRSA (ATCC BAA-1556) [5] = tested on: MRSA (ATCC BAA-1556); set-up: MIC MRSA: unit not given beside the values; details: supplementary csv, unit not given
E. coli (ATCC 25922) [6] = tested on: E. coli (ATCC 25922); set-up: MIC E. coli: unit not given beside the values; details: supplementary csv, unit not given
[7] = tested on: P. aeruginosa (ATCC 27883); set-up: MIC P. aeruginosa: unit not given beside the values; details: for MIC P. aeruginosa: supplementary csv, unit not given
[8] = tested on: human red blood cells (hRBCs); details: red cells of human, 2 h
Method: The hemolytic activity of all the cyclic peptides was determined using human red blood cells (hRBC) purchased from BioIVT, USA. […] Peptide-induced hemolysis was tested in triplicate by mixing 75 μL of the peptide solution in PBS (two-fold serial dilution) with 75 μL of a 4% (v/v) hRBC suspension in phosphate-buffered saline. The plates were incubated for 2 h at 37 °C without agitation and centrifuged at 1000g for 10 min. Aliquots (100 μL) of the supernatant were transferred to 96-well plates, where hemoglobin release was measured spectrophotometrically at 567 nm. Percent hemolysis was calculated by the following formula: [drawing 1] where A represents the absorbance of the peptide sample at 567 nm and A0 and At represent zero percent and 100% hemolysis determined in phosphate-buffered saline and 1% Triton X-100, respectively.

[9] = tested on: K. pneumoniae (ATCC BAA-1705); experiment: microbe, parasite or virus in culture; details: Klebsiella pneumoniae
MRSA (ATCC BAA-1556) [10] = experiment: microbe, parasite or virus in culture; details: Staphylococcus aureus
[11] = tested on: P. aeruginosa (ATCC 27883); experiment: microbe, parasite or virus in culture; details: Pseudomonas aeruginosa, ATCC27883, read-out: MIC P. aeruginosa (ATCC 27883)
E. coli (ATCC 25922) [12] = experiment: microbe, parasite or virus in culture; details: Escherichia coli
[13] = tested on: S. aureus (ATCC BAA-1556); experiment: Synergistic checkerboard assay; assay type: cell-based; details: Staphylococcus aureus, ATCCBAA1556, read-out: MIC antibiotic alone
Method: as §1, §2, §3

[14] = ATCC27883, read-out: MIC antibiotic alone
[15] = antibiotic alone or physical mixture with peptide (1:1 w/w)

Row | SMILES | MIC [3] [µg/mL] | MIC K. pneumoniae [4] | MIC MRSA (MRSA (ATCC BAA-1556) [5]) | MIC E. coli (E. coli (ATCC 25922) [6]) | MIC P. aeruginosa [7] | HC50 [8] [µg/mL] | also measured
1 | C[C@H]1COc2c(N3CCN(C)CC3)c(F)cc3c(=O)c(C(=O)O)cn1c23.C[C@H]1COc2c(N3CCN(C)CC3)c(F)cc3c(=O)c(C(=O)O)cn1c23.O [levofloxacin] | 64 | – | – | – | – | – | MIC [1, 14]: 1 µg/mL; MIC (E. coli (ATCC 25922) [2]): 64 µg/mL
2 | N=C(N)NCCC[C@@H]1NC(=O)[C@H](CCCNC(=N)N)NC(=O)[C@H](CCCNC(=N)N)NC(=O)[C@H](Cc2c[nH]c3ccccc23)NC(=O)[C@H](Cc2c[nH]c3ccccc23)NC(=O)[C@H](Cc2c[nH]c3ccccc23)NC(=O)[C@H](Cc2c[nH]c3ccccc23)NC(=O)[C@H](Cc2c[nH]c3ccccc23)NC(=O)[C@H](Cc2c[nH]c3ccccc23)NC(=O)[C@H](Cc2c[nH]c3ccccc23)NC(=O)[C@H](CCCNC(=N)N)NC1=O [4d, [R4W7]] (cyclo(RRRRWWWWWWW)) | – | 256 | 256 | 128 | >256 | 60 | –
3 | N=C(N)NCCC[C@@H]1NC(=O)[C@H](CCCNC(=N)N)NC(=O)[C@H](CCCNC(=N)N)NC(=O)[C@H](CCCNC(=N)N)NC(=O)[C@H](Cc2c[nH]c3ccccc23)NC(=O)[C@H](Cc2c[nH]c3ccccc23)NC(=O)[C@H](Cc2c[nH]c3ccccc23)NC(=O)[C@H](Cc2c[nH]c3ccccc23)NC(=O)[C@H](Cc2c[nH]c3ccccc23)NC(=O)[C@H](Cc2c[nH]c3ccccc23)NC(=O)[C@H](Cc2c[nH]c3ccccc23)NC(=O)[C@H](CCCNC(=N)N)NC(=O)[C@H](CCCNC(=N)N)NC1=O [6d, [R6W7]] (cyclo(RRRRRRWWWWWWW)) | – | 256 | 64 | 128 | >256 | 85 | –
4 | N=C(N)NCCC[C@@H]1NC(=O)[C@H](CCCNC(=N)N)NC(=O)[C@H](CCCNC(=N)N)NC(=O)[C@H](Cc2c[nH]c3ccccc23)NC(=O)[C@H](Cc2c[nH]c3ccccc23)NC(=O)[C@H](Cc2c[nH]c3ccccc23)NC(=O)[C@H](Cc2c[nH]c3ccccc23)NC(=O)[C@H](Cc2c[nH]c3ccccc23)NC(=O)[C@H](Cc2c[nH]c3ccccc23)NC(=O)[C@H](CCCNC(=N)N)NC1=O [4c, [R4W6]] | – | 256 | 128 | 128 | 128 | 75 | –
5 | N=C(N)NCCC[C@@H]1NC(=O)[C@H](CCCNC(=N)N)NC(=O)[C@H](Cc2c[nH]c3ccccc23)NC(=O)[C@H](Cc2c[nH]c3ccccc23)NC(=O)[C@H](Cc2c[nH]c3ccccc23)NC(=O)[C@H](CCCNC(=N)N)NC1=O [3a, [R3W3]] (cyclo(WWWRRR); ring closure inferred) | – | 64 | 16 | 32 | 128 | 155 | –
6 | CCC[C@@H]1C[C@@H](C(=O)N[C@@H]([C@H]2O[C@H](SC)[C@H](O)[C@@H](O)[C@H]2O)[C@H](C)Cl)N(C)C1 [clindamycin] | 512 | – | – | – | – | – | MIC K. pneumoniae (ATCC BAA-1705) [4, 15]: 512 µg/mL (≈ 1200 µM); MIC ([1]; ATCC27883, checkerboard, read-out: MIC antibiotic alone): 512 µg/mL; MIC P. aeruginosa (ATCC 27883) [7, 15]: 512 µg/mL (≈ 1200 µM); MIC antibiotic alone ([3]; checkerboard): 512 µg/mL
7 | CN[C@H](CC(C)C)C(=O)N[C@H]1C(=O)N[C@@H](CC(N)=O)C(=O)N[C@H]2C(=O)N[C@H]3C(=O)N[C@H](C(=O)N[C@H](C(=O)O)c4cc(O)cc(O)c4-c4cc3ccc4O)[C@H](O)c3ccc(c(Cl)c3)Oc3cc2cc(c3O[C@@H]2O[C@H](CO)[C@@H](O)[C@H](O)[C@H]2O[C@H]2C[C@](C)(N)[C@H](O)[C@H](C)O2)Oc2ccc(cc2Cl)[C@H]1O [vancomycin] | 512 | – | – | – | – | – | MIC [1, 14]: 256 µg/mL; MIC ([9]; ATCCBAA1705, 24 h, read-out: MIC K. pneumoniae (ATCC BAA-1705)): 512 µg/mL (≈ 353 µM); MIC ([9]; ATCCBAA1705, read-out: MIC K. pneumoniae (ATCC BAA-1705)): 512 µg/mL (≈ 353 µM); MIC (E. coli (ATCC 25922) [2]): 256 µg/mL; MIC (MRSA (ATCC BAA-1556) [10]; read-out: MIC MRSA (ATCC BAA-1556)): 1 µg/mL (≈ 0.69 µM); MIC (MRSA (ATCC BAA-1556) [10]; read-out: MIC S. aureus (ATCC BAA-1556)): 1 µg/mL (≈ 0.69 µM); MIC [11]: 256 µg/mL (≈ 177 µM); MIC (E. coli (ATCC 25922) [12]; ATCC25922, 24 h, read-out: MIC E. coli (ATCC 25922)): 256 µg/mL (≈ 177 µM); MIC (E. coli (ATCC 25922) [12]; ATCC25922, read-out: MIC E. coli (ATCC 25922)): 256 µg/mL (≈ 177 µM); MIC [13]: 1 µg/mL
